Where two headings read alike, the source gives them in different places.
How the values were obtained:
HCV replicon = HCV replicon assay: HCV RNA by Q-RT-PCR, 4 days exposure; format: cell-based, hepatitis C virus (HCV); details: for EC90: read-out: Corrected HCV RNA EC90; for log reduction at 10 µM: read-out: Corrected HCV RNA log10 reduction at 10 μM
Procedure: Antiviral screening assays can be done in the same media without G418 as follows: in order to keep cells in logarithmic growth phase, seed cells in a 96-well plate at low density, for example 1000 cells per well. Add the test compound immediate after seeding the cells and incubate for a period of 3 to 7 days at 37° C. in an incubator. Media is then removed, and the cells are prepared for total nucleic acid extraction (including replicon RNA and host RNA). Replicon RNA can then be amplified in a Q-RT-PCR protocol, and quantified accordingly. […] This value is called DeltaCt (ΔCt or DCt).
This value is called DeltaCt (ΔCt or dCt).

Huh-7 cells = experiment: Cellular rRNA levels / cytotoxicity in HCV replicon cells; details: 100 μM; 4 days; HCV replicon transfected Huh-7 cells
Description: In a typical setting, a compound might reduce both the host RNA polymerase activity and the replicon-encoded polymerase activity. Therefore, quantification of rRNA (or any other host RNA polymerase I product) or beta-actin mRNA (or any other host RNA polymerase II) and comparison with RNA levels of the no-drug control is a relative measurement of the effect of the test compound on host RNA polymerases.
With the availability of both the HCV ΔCt data and the rRNA ΔCt, a specificity parameter can be introduced. This parameter is obtained by subtracting both ΔCt values from each other.
IFN-α-2a and ribavirin were tested over a range of concentrations for their ability to reduce the HCV RNA levels in exponentially growing replicon cells after 4 days of exposure as described (Stuyver, L. et al. “A ribonucleoside analogue that blocks the replication of bovine viral diarrhea and hepatitis C viruses in culture” Antimicrob. Agents Chemother. 2003, 47, 244-254).
Gemcitabine was dissolved in DMSO and added to the culture media of a cellular model system of Huh7 cells harboring self-replicating HCV RNA, at final concentrations ranging from […]. In such experiments, one way to express the antiviral effectiveness of a compound is to subtract the threshold reverse-transcriptase polymerase chain reactions (RT-PCR) cycle of the test compound with the average threshold RT-PCR cycle of the negative control. This value is called DeltaCt (ΔCt or dCt). With the availability of both the HCV ΔCt data and the rRNA ΔCt, a specificity parameter can be introduced. This parameter is obtained by subtracting both ΔCt values from each other.

[1] = tested on: HCV replicon cells (Huh-7); experiment: 7-day cell growth dynamics, trypan-blue cell count; details: for effect on cell proliferation: 7-day period, at 96 h EC90 value (ribavirin 100 μM, IFN 100 IU/ml)
Procedure: FIG. 2 is a graphical depiction of the dynamics of cell growth and HCV RNA levels after exposure to control anti-HCV compounds. HCV replicon cells were seeded at approximately 10^4 cells per well in a 24-well plate. Over a 7-day period, cells were counted daily, and rRNA and HCV RNA were quantified by Q-RT-PCR. A: IFN-α-2a at 100 IU/ml; B: ribavirin at 100 μM. ●: cell proliferation in absence of compound; ◯: cell proliferation in presence of compound; ▾: HCV RNA levels in untreated cells; ∇: HCV RNA levels in the presence of compound. The curves shown are averages of 3 independent experiments.
Therefore, experiments were conducted to monitor HCV RNA levels and the cell growth dynamics over a 7-day period.
The dynamics of HCV replicon cells exposed to these inhibitors (at their EC90 value) was monitored over a 7-day period.

HCV replicon RNA [2] = experiment: 7-day dynamics of HCV RNA levels; format: cell-based, hepatitis C virus (HCV); details: for effect on HCV RNA levels: 7-day period, at 96 h EC90 value (IFN 100 IU/ml)
HCV replicon RNA [3] = experiment: Replicon RNA copy number per cell; format: cell-based, hepatitis C virus (HCV); details: for change in replicon RNA copy number per cell (words): 7-day period, treated versus no-treatment controls
Procedure: FIG. 4 is a graphical depiction of the log10 changes for replicon RNA levels per cell. The plots were obtained from data collected in FIGS. 2 and 3, in which log10 changes for cell count and replicon RNA levels were subtracted from each other. A. Control antiviral compounds. ●: no drug control; ▾: IFN-α-2a at 100 IU/ml; ▪: ribavirin at 100 μM. B. Selection of the most important anti-metabolites. ●: no drug control; ▾: dFdC at 50 nM; ▪: CP-C at 25 μM; ♦: CPE-C at 2.5 μM; ▴: PALA at 10 μM; ●: PZF at 5 μM.
To express the specificity of the antiviral action of the control compounds versus the anti-metabolites, the log10 change in replicon RNA copy number per cell and per day was calculated from the above experiments.

HCV replicon cells = experiment: Prevention studies with natural ribo- or 2′-deoxy nucleosides; format: cell-based, human; details: test compound at 96 h EC90 value; nucleosides at 50 μM
HCV = details: cited from earlier work
[4] = Hepatitis C virus, 96 h, 100 μM, 4 days, HCV replicon transfected Huh-7 cells, read-out: log10 RNA reduction at 100 μM, HCV

Compound NC(=O)c1[nH]nc([C@@H]2O[C@H](CO)[C@@H](O)[C@H]2O)c1O [PZF, pyrazofurin] has an EC90 (HCV replicon; Hepatitis C virus, 96 h) of 3.8 µM, a log reduction at 10 µM (HCV replicon; Hepatitis C virus, 96 h) of 1.16 ± 0.21 and a log reduction at 100 µM (HCV replicon; Hepatitis C virus, 96 h, read-out: Corrected HCV RNA log10 reduction at 100 μM) of 1.46 ± 0.08. For the same compound, the log reduction at 100 µM (HCV replicon; [4]) was 1.88 ± 0.05, the “log10 RNA reduction at 100 μM, rRNA” value (Huh-7 cells) was 0.42 ± 0.03 log10 and the “effect on cell proliferation” value [1] was “reduced cell proliferation only minimally”. The “effect on HCV RNA levels” value (HCV replicon RNA [2]) was “significantly reduced HCV RNA levels”, the “reduction in replicon RNA levels per cell” value (HCV replicon RNA [3]; 5 μM, after 7 days treatment) was 2.96 log10 and the “change in replicon RNA copy number per cell (words)” value (from here on “change … per cell (words)”) (HCV replicon RNA [3]) was “time dependent reduction”. The “prevention of antiviral and cytostatic effects by natural nucleosides” value (shortened to “prevention”) (HCV replicon cells) was “prevented by addition of uridine”.
For NC(=O)c1ncn([C@@H]2O[C@H](CO)[C@@H](O)[C@H]2O)n1 [Ribavirin, 1-β-D-ribofuranosyl-1-1,2,4-triazole-3-carboxamide], the log reduction at 10 µM (HCV replicon; Hepatitis C virus, 96 h, 10 μM, corrected for rRNA) was 0.16 ± 0.1, the log reduction at 100 µM (HCV replicon; [4]) was 1.96 ± 0.28 and the log reduction at 100 µM (HCV replicon; Hepatitis C virus, 96 h, 100 μM, corrected for rRNA, read-out: Corrected HCV RNA log10 reduction at 100 μM) was 1.05 ± 0.29. The EC90 (HCV replicon; Hepatitis C virus, 96 h incubation) was ~100 µM, the “log10 RNA reduction at 100 μM, rRNA” value (Huh-7 cells) was 0.91 ± 0.12 log10 and the “log10 reduction in cell growth at day 7 compared to day 0” value ([1]; 100 μM) was 0.22±0.1 log10. The “log10 reduction in cell growth compared to the no treatment control on day 7” value ([1]; 100 μM) was 1.53 log10, the “effect on cell proliferation” value [1] was “completely inhibited cell proliferation” and the “HCV RNA reduction on day 7 compared to untreated controls” value (HCV replicon RNA [2]; 100 μM) was 2.08 log10. The “change … per cell (words)” value (HCV replicon RNA [3]) was “only minimally”, the “change … per cell (words)” value (HCV replicon RNA [3]; listed as ribavirin) was “changed only marginally” and the “prevention” value (HCV replicon cells) was 2′-deoxyguanosine and guanosine prevented the effects. For the same compound, the “effect on serum levels of HCV-RNA” value (HCV; HCV patients) was “does not lower” and the “patients with serum amino transferase levels reduced to normal” value (HCV) was 40%.
In the case of Cyclopentylcytosine [CP-C], the “Corrected HCV RNA log10 reduction at 10 μM” value (HCV replicon; 10 μM, corrected for rRNA) is reported as 0.64 ± 0.10 log10, the “log10 RNA reduction at 100 μM, HCV” value (HCV replicon; 100 μM, 4 days, HCV replicon transfected Huh-7 cells) is reported as 1.97 ± 0.38 log10 and the “Corrected HCV RNA log10 reduction at 100 μM” value (HCV replicon; 100 μM, corrected for rRNA) is reported as 1.06 ± 0.26 log10. The EC90 (HCV replicon; 96 h incubation) was 25 µM, the “log10 RNA reduction at 100 μM, rRNA” value (Huh-7 cells) was 0.91 ± 0.13 log10 and the “effect on cell proliferation” value [1] was “cytostatic effects”. For the same compound, the “effect on HCV RNA levels” value (HCV replicon RNA [2]) was “reduced HCV-replicon RNA levels”, the “change … per cell (words)” value (HCV replicon RNA [3]) was “profile similar to that seen for IFN-α-2a” and the “prevention” value (HCV replicon cells) was “addition of cytidine to the culture medium compensated for the inhibitory effects”.

Reference: patent US20050049220A1, “Dosing regimen for Flaviviridae therapy” (priority 2003, published 2005)
